Experimental findings from PMC5218480 (PLoS ONE, 2017) are described below.

In this test the test system is MV-4-11 cells. The experiment in a line: Gene expression microarray analysis (Affymetrix PrimeView) and GSEA. The format is cell-based, human. Also on record: RFU PODN (11730768_x_at) / Fold change /veh PODN (11730768_x_at) / RFU LINC00158 (11744669_a_at) / Fold change /veh LINC00158 (11744669_a_at) / RFU DUSP10 (11751237_a_at) / Fold change /veh DUSP10 (11751237_a_at) / RFU ID3 (11757404_x_at) / Fold change /veh ID3 (11757404_x_at) / RFU PLEKHG5 (11737974_s_at) / Fold change /veh PLEKHG5 (11737974_s_at) / RFU LRRC4B (11730491_at) / Fold change /veh LRRC4B (11730491_at) / RFU GIMAP4 (11747438_a_at) / Fold change /veh GIMAP4 (11747438_a_at) / RFU KRT8 (11758183_x_at) / Fold change /veh KRT8 (11758183_x_at) / RFU CNN1 (11734310_a_at) / Fold change /veh CNN1 (11734310_a_at) / RFU VPS37D (11726825_at) / Fold change /veh VPS37D (11726825_at) / RFU C10orf10 (11716522_x_at) / Fold change /veh C10orf10 (11716522_x_at) / RFU KIR2DL2 /// KIR2DL4 /// KIR2DL5A /// KIR2DL5B /// KIR2DS1 /// KIR2DS2 /// KIR2DS3 /// KIR2DS4 /// KIR3DL3 /// KIR3DL3 /// KIR3DS1 (11738374_at) / Fold change /veh KIR2DL2 /// KIR2DL4 /// KIR2DL5A /// KIR2DL5B /// KIR2DS1 /// KIR2DS2 /// KIR2DS3 /// KIR2DS4 /// KIR3DL3 /// KIR3DL3 /// KIR3DS1 (11738374_at) / RFU C1QL1 (11718748_at) / Fold change /veh C1QL1 (11718748_at) / RFU TMPRSS4 (11747572_a_at) / Fold change /veh TMPRSS4 (11747572_a_at) / RFU HAMP (11756126_x_at) / Fold change /veh HAMP (11756126_x_at) / RFU RNFT2 (11725882_a_at) / Fold change /veh RNFT2 (11725882_a_at) / RFU NR4A2 (11747474_a_at) / Fold change /veh NR4A2 (11747474_a_at) / RFU ABCC12 (11746883_a_at) / Fold change /veh ABCC12 (11746883_a_at) / RFU TMEM136 (11760407_x_at) / Fold change /veh TMEM136 (11760407_x_at) / RFU CLDN22 /// WWC2 (11732394_at) / Fold change /veh CLDN22 /// WWC2 (11732394_at) / RFU HLA-DPB1 (11760878_x_at) / Fold change /veh HLA-DPB1 (11760878_x_at) / RFU SPINT1 (11716480_a_at) / Fold change /veh SPINT1 (11716480_a_at) / RFU GAP43 (11754022_s_at) / Fold change /veh GAP43 (11754022_s_at) / RFU A4GNT (11735810_at) / Fold change /veh A4GNT (11735810_at) / RFU PRB3 (11715151_x_at) / Fold change /veh PRB3 (11715151_x_at) / RFU TUBB4B (11761932_at) / Fold change /veh TUBB4B (11761932_at) / RFU CAPN14 (11732068_a_at) / Fold change /veh CAPN14 (11732068_a_at) / RFU TMCC2 (11721928_a_at) / Fold change /veh TMCC2 (11721928_a_at) / RFU IRGQ (11745062_a_at) / Fold change /veh IRGQ (11745062_a_at) / RFU FAM174B (11720279_a_at) / Fold change /veh FAM174B (11720279_a_at) / RFU TMPRSS4 (11748680_a_at) / Fold change /veh TMPRSS4 (11748680_a_at) / RFU FAM212B (11763350_a_at) / Fold change /veh FAM212B (11763350_a_at) / RFU PLEKHG5 (11743358_a_at) / Fold change /veh PLEKHG5 (11743358_a_at) / RFU ZSCAN30 (11745921_a_at) / Fold change /veh ZSCAN30 (11745921_a_at) / RFU CMKLR1 (11741424_a_at) / Fold change /veh CMKLR1 (11741424_a_at) / RFU LOC101060620 /// MAPK8IP1 (11723275_at) / Fold change /veh LOC101060620 /// MAPK8IP1 (11723275_at) / RFU SPTSSB (11747773_x_at) / Fold change /veh SPTSSB (11747773_x_at) / RFU PRSS12 (11739890_at) / Fold change /veh PRSS12 (11739890_at) / RFU BIN1 (11741810_x_at) / Fold change /veh BIN1 (11741810_x_at) / RFU WNT11 (11732464_a_at) / Fold change /veh WNT11 (11732464_a_at) / RFU C10orf10 (11716521_a_at) / Fold change /veh C10orf10 (11716521_a_at) / RFU C5orf56 (11738089_at) / Fold change /veh C5orf56 (11738089_at) / RFU CYB561 (11721691_x_at) / Fold change /veh CYB561 (11721691_x_at) / RFU ANKRD19P (11752326_a_at) / Fold change /veh ANKRD19P (11752326_a_at) / RFU OR2T12 /// OR2T33 /// OR2T8 (11738714_s_at) / Fold change /veh OR2T12 /// OR2T33 /// OR2T8 (11738714_s_at) / RFU VCAN (11748164_a_at) / Fold change /veh VCAN (11748164_a_at) / RFU JSRP1 (11732532_at) / Fold change /veh JSRP1 (11732532_at) / RFU KRTAP10-11 (11738290_x_at) / Fold change /veh KRTAP10-11 (11738290_x_at) / RFU MYO3A (11730013_a_at) / Fold change /veh MYO3A (11730013_a_at) / RFU EBF3 (11725865_a_at) / Fold change /veh EBF3 (11725865_a_at) / RFU CAMK2N1 (11719241_x_at) / Fold change /veh CAMK2N1 (11719241_x_at) / RFU C5orf56 (11738088_a_at) / Fold change /veh C5orf56 (11738088_a_at) / RFU OLFML3 (11715873_a_at) / Fold change /veh OLFML3 (11715873_a_at) / RFU LOC100653217 /// NTM (11731650_a_at) / Fold change /veh LOC100653217 /// NTM (11731650_a_at) / RFU MAPK11 (11762145_a_at) / Fold change /veh MAPK11 (11762145_a_at) / RFU FIZ1 (11724087_x_at) / Fold change /veh FIZ1 (11724087_x_at) / RFU OASL (11726364_x_at) / Fold change /veh OASL (11726364_x_at) / RFU SOX15 (11748057_x_at) / Fold change /veh SOX15 (11748057_x_at) / RFU CD79A (11719716_a_at) / Fold change /veh CD79A (11719716_a_at) / RFU HIST1H1D (11736915_at) / Fold change /veh HIST1H1D (11736915_at) / RFU CASKIN2 (11723855_a_at) / Fold change /veh CASKIN2 (11723855_a_at) / RFU LOC730098 (11760151_x_at) / Fold change /veh LOC730098 (11760151_x_at) / RFU OR4N2 (11742367_at) / Fold change /veh OR4N2 (11742367_at) / RFU PRRT2 (11749266_a_at) / Fold change /veh PRRT2 (11749266_a_at) / RFU SNX32 (11753110_a_at) / Fold change /veh SNX32 (11753110_a_at) / RFU CDHR5 (11726645_a_at) / Fold change /veh CDHR5 (11726645_a_at) / RFU RCAN1 (11760418_a_at) / Fold change /veh RCAN1 (11760418_a_at) / RFU FAM167A (11723789_a_at) / Fold change /veh FAM167A (11723789_a_at) / RFU FAM26E (11764081_at) / Fold change /veh FAM26E (11764081_at) / RFU ISYNA1 (11749810_s_at) / Fold change /veh ISYNA1 (11749810_s_at) / RFU ACY1 (11761880_at) / Fold change /veh ACY1 (11761880_at) / RFU 11764098_at / Fold change /veh 11764098_at / RFU SAMD14 (11745864_x_at) / Fold change /veh SAMD14 (11745864_x_at) / RFU NPB (11741838_a_at) / Fold change /veh NPB (11741838_a_at) / RFU TMPRSS6 (11731388_a_at) / Fold change /veh TMPRSS6 (11731388_a_at) / RFU KRTAP10-2 (11738614_at) / Fold change /veh KRTAP10-2 (11738614_at) / RFU ARHGAP8 /// PRR5-ARHGAP8 (11727945_x_at) / Fold change /veh ARHGAP8 /// PRR5-ARHGAP8 (11727945_x_at) / RFU KRTAP5-7 /// NADSYN1 (11734609_at) / Fold change /veh KRTAP5-7 /// NADSYN1 (11734609_at) / RFU RASL12 (11751679_a_at) / Fold change /veh RASL12 (11751679_a_at) / RFU CDKN2B (11736163_a_at) / Fold change /veh CDKN2B (11736163_a_at) / RFU PRF1 (11729649_at) / Fold change /veh PRF1 (11729649_at) / RFU, ZNF638 /// ZNF638-IT1 / Fold change vs veh, ZNF638 /// ZNF638-IT1 / RFU, PANK3 / Fold change vs veh, PANK3 / RFU, SH3YL1 / Fold change vs veh, SH3YL1 / RFU, ZEB2 / Fold change vs veh, ZEB2 / RFU, NRIP1 / Fold change vs veh, NRIP1 / RFU, PTTG1IP / Fold change vs veh, PTTG1IP / RFU, CAPN2 / Fold change vs veh, CAPN2 / RFU, MED14 / Fold change vs veh, MED14 / RFU, SNORA58 / Fold change vs veh, SNORA58 / RFU, C1orf63 / Fold change vs veh, C1orf63 / RFU, LRRFIP1 / Fold change vs veh, LRRFIP1 / RFU, NDUFAF7 / Fold change vs veh, NDUFAF7 / RFU, SLC12A2 / Fold change vs veh, SLC12A2 / RFU, IBTK / Fold change vs veh, IBTK / RFU, ESF1 / Fold change vs veh, ESF1 / Fold change vs veh, TMEM50B / RFU, TAOK1 / Fold change vs veh, TAOK1 / RFU, ACBD3 / Fold change vs veh, ACBD3 / RFU, TMA16 / Fold change vs veh, TMA16 / RFU, RWDD3 / Fold change vs veh, RWDD3 / RFU, BCAT1 / Fold change vs veh, BCAT1 / RFU, EDEM3 / Fold change vs veh, EDEM3 / RFU, TMEM33 / Fold change vs veh, TMEM33 / RFU, WDR75 / Fold change vs veh, WDR75 / RFU, AHCTF1 / Fold change vs veh, AHCTF1 / RFU, TFRC / Fold change vs veh, TFRC / RFU, ZDHHC17 / Fold change vs veh, ZDHHC17 / RFU, NOM1 / Fold change vs veh, NOM1 / RFU, ARL8B / Fold change vs veh, ARL8B / RFU, ZBTB11 / Fold change vs veh, ZBTB11 / RFU, TAMM41 / Fold change vs veh, TAMM41 / RFU, KIAA1704 /// LOC100996395 / Fold change vs veh, KIAA1704 /// LOC100996395 / RFU, ING1 / Fold change vs veh, ING1 / RFU, TRMT61B / Fold change vs veh, TRMT61B / RFU, FUBP3 / Fold change vs veh, FUBP3 / RFU, TP53 / Fold change vs veh, TP53 / RFU, TNKS2 / Fold change vs veh, TNKS2 / RFU, ZFP14 / Fold change vs veh, ZFP14 / RFU, ACTR2 / Fold change vs veh, ACTR2 / RFU, PPP3R1 / Fold change vs veh, PPP3R1 / RFU, PIK3R1 / Fold change vs veh, PIK3R1 / RFU, HNRNPA1 / Fold change vs veh, HNRNPA1 / RFU, RNF170 / Fold change vs veh, RNF170 / RFU, ZNF28 / Fold change vs veh, ZNF28 / RFU, RNGTT / Fold change vs veh, RNGTT / RFU, OGT / Fold change vs veh, OGT / RFU, BRD1 / Fold change vs veh, BRD1 / RFU, MARS / Fold change vs veh, MARS / RFU, ZNF655 / Fold change vs veh, ZNF655 / RFU, FAHD1 / Fold change vs veh, FAHD1 / RFU, BDP1 / Fold change vs veh, BDP1 / RFU, LRRCC1 / Fold change vs veh, LRRCC1 / RFU, ARID1A / Fold change vs veh, ARID1A / RFU, ZNF146 / Fold change vs veh, ZNF146 / RFU, ZNF330 / Fold change vs veh, ZNF330 / RFU, GPN3 / Fold change vs veh, GPN3 / RFU, C9orf123 / Fold change vs veh, C9orf123 / RFU, N4BP2L2 / Fold change vs veh, N4BP2L2 / RFU, ARFIP1 / Fold change vs veh, ARFIP1 / RFU, FAM179B / Fold change vs veh, FAM179B / RFU, BCL10 / Fold change vs veh, BCL10 / RFU, UHRF1BP1L / Fold change vs veh, UHRF1BP1L / RFU, BET1 / Fold change vs veh, BET1 / RFU, CNOT2 / Fold change vs veh, CNOT2 / RFU, ZNF268 / Fold change vs veh, ZNF268 / Fold change vs veh, ZNF507 / RFU, DGCR2 / Fold change vs veh, DGCR2 / RFU, WDSUB1 / Fold change vs veh, WDSUB1 / Fold change vs veh, HSP90B1 /// MIR3652 / RFU, ADSS / Fold change vs veh, ADSS / RFU, GK / Fold change vs veh, GK / RFU, ZNF148 / Fold change vs veh, ZNF148 / RFU, TAF9 / Fold change vs veh, TAF9 / RFU, SLC1A5 / Fold change vs veh, SLC1A5 / RFU, SLMO2 / Fold change vs veh, SLMO2 / RFU, ABCC4 / Fold change vs veh, ABCC4 / RFU, LOC101060439 /// RAP1B / Fold change vs veh, LOC101060439 /// RAP1B / RFU, RFX7 / Fold change vs veh, RFX7 / RFU, GTPBP10 / Fold change vs veh, GTPBP10 / RFU, CNEP1R1 / Fold change vs veh, CNEP1R1 / RFU, BIVM-ERCC5 /// ERCC5 / Fold change vs veh, BIVM-ERCC5 /// ERCC5 / RFU, ILF3 / Fold change vs veh, ILF3 / RFU 11762660_at / Fold change /veh 11762660_at / RFU VCAN (11757783_s_at) / Fold change /veh VCAN (11757783_s_at) / RFU DDX43 (11728927_at) / Fold change /veh DDX43 (11728927_at) / RFU KRT8 (11758188_x_at) / Fold change /veh KRT8 (11758188_x_at) / RFU NKD1 (11759106_at) / Fold change /veh NKD1 (11759106_at) / RFU SRD5A1 (11742802_a_at) / Fold change /veh SRD5A1 (11742802_a_at) / RFU TPSAB1 /// TPSB2 (11721975_s_at) / Fold change /veh TPSAB1 /// TPSB2 (11721975_s_at) / RFU GSTM3 (11746129_a_at) / Fold change /veh GSTM3 (11746129_a_at) / RFU IL23R (11737362_x_at) / Fold change /veh IL23R (11737362_x_at) / RFU TMEM51 (11727254_a_at) / Fold change /veh TMEM51 (11727254_a_at) / RFU PIWIL2 (11732686_x_at) / Fold change /veh PIWIL2 (11732686_x_at) / RFU ORM1 (11744905_x_at) / Fold change /veh ORM1 (11744905_x_at) / RFU CCDC152 (11743942_at) / Fold change /veh CCDC152 (11743942_at) / RFU ECM1 (11717891_a_at) / Fold change /veh ECM1 (11717891_a_at) / RFU IL23R (11748794_a_at) / Fold change /veh IL23R (11748794_a_at) / RFU TNFAIP8L3 (11732012_x_at) / Fold change /veh TNFAIP8L3 (11732012_x_at) / RFU MBOAT4 (11741988_at) / Fold change /veh MBOAT4 (11741988_at) / RFU 11764193_at / Fold change /veh 11764193_at / RFU TMEM53 (11763286_at) / Fold change /veh TMEM53 (11763286_at) / RFU MAGEB2 (11727129_at) / Fold change /veh MAGEB2 (11727129_at) / RFU TMEM200A (11744735_a_at) / Fold change /veh TMEM200A (11744735_a_at) / RFU CCDC152 (11751479_a_at) / Fold change /veh CCDC152 (11751479_a_at) / RFU FAM211A (11726209_a_at) / Fold change /veh FAM211A (11726209_a_at) / RFU RGS16 (11746705_a_at) / Fold change /veh RGS16 (11746705_a_at) / RFU VCAN (11755009_s_at) / Fold change /veh VCAN (11755009_s_at) / RFU RHOB (11743442_s_at) / Fold change /veh RHOB (11743442_s_at) / RFU RGS16 (11720943_a_at) / Fold change /veh RGS16 (11720943_a_at) / RFU RGS16 (11720944_at) / Fold change /veh RGS16 (11720944_at) / RFU, VPS4B / Fold change vs veh, VPS4B / RFU, CREB1 / Fold change vs veh, CREB1 / RFU, DNAJC13 / Fold change vs veh, DNAJC13 / RFU, GNAQ / Fold change vs veh, GNAQ / RFU, CDK5R1 / Fold change vs veh, CDK5R1 / RFU, ZRANB3 / Fold change vs veh, ZRANB3 / RFU, CUL4A / Fold change vs veh, CUL4A / RFU, CCNY / Fold change vs veh, CCNY / RFU, UFL1 / Fold change vs veh, UFL1 / RFU, COG3 / Fold change vs veh, COG3 / RFU, DIAPH2 / Fold change vs veh, DIAPH2 / RFU, SKA2 / Fold change vs veh, SKA2 / RFU, AFF3 / Fold change vs veh, AFF3 / RFU, LMF1 / Fold change vs veh, LMF1 / RFU, IPO11 / Fold change vs veh, IPO11 / RFU, DFFB / Fold change vs veh, DFFB / RFU, FOXP1 / Fold change vs veh, FOXP1 / RFU, CARD8 / Fold change vs veh, CARD8 / RFU, STRN3 / Fold change vs veh, STRN3 / RFU, ADK / Fold change vs veh, ADK / RFU, RASSF2 / Fold change vs veh, RASSF2 / RFU, WIPF1 / Fold change vs veh, WIPF1 / RFU, LARP1B / Fold change vs veh, LARP1B / RFU, RASA1 / Fold change vs veh, RASA1 / RFU, RB1 / Fold change vs veh, RB1 / RFU, PPFIA1 / Fold change vs veh, PPFIA1 / RFU, MAT2A / Fold change vs veh, MAT2A / RFU, CCT5 / Fold change vs veh, CCT5 / RFU, WDR92 / Fold change vs veh, WDR92 / RFU, CUX1 / Fold change vs veh, CUX1 / RFU, TTC7A / Fold change vs veh, TTC7A / RFU, TMEM135 / Fold change vs veh, TMEM135 / RFU, DEPTOR / Fold change vs veh, DEPTOR / RFU, CPM / Fold change vs veh, CPM / RFU, DNAJB6 / Fold change vs veh, DNAJB6 / RFU, CACNA2D3 / Fold change vs veh, CACNA2D3 / RFU, DTX4 / Fold change vs veh, DTX4 / RFU, TFCP2 / Fold change vs veh, TFCP2 / RFU, GMCL1 /// GMCL1P1 / Fold change vs veh, GMCL1 /// GMCL1P1 / RFU, AEBP2 / Fold change vs veh, AEBP2 / RFU, SNHG1 /// SNORD22 /// SNORD25 /// SNORD26 /// SNORD27 /// SNORD28 /// SNORD29 /// SNORD31 / Fold change vs veh, SNHG1 /// SNORD22 /// SNORD25 /// SNORD26 /// SNORD27 /// SNORD28 /// SNORD29 /// SNORD31 / Fold change (Aza/veh), C12orf56 (ProbeSet 11735607_a_at) / Fold change (ACY-1035/veh), C12orf56 (ProbeSet 11735607_a_at) / Fold change (Aza/veh), FGFR1OP (ProbeSet 11751329_s_at) / Fold change (ACY-1035/veh), FGFR1OP (ProbeSet 11751329_s_at) / Fold change (Aza/veh), VPS36 (ProbeSet 11739960_a_at) / Fold change (ACY-1035/veh), VPS36 (ProbeSet 11739960_a_at) / RFU SYPL1 (11715823_x_at) / Fold change /veh SYPL1 (11715823_x_at) / RFU IGFBP7 (11715501_s_at) / Fold change /veh IGFBP7 (11715501_s_at) / RFU REEP3 (11722064_at) / Fold change /veh REEP3 (11722064_at) / RFU IGLL1 (11728026_x_at) / Fold change /veh IGLL1 (11728026_x_at): dose or concentration left out as unconfirmed. The settings on record: ProbeSet 11743286_at; LIST D.

On to `Nc1ncn([C@@H]2O[C@H](CO)[C@@H](O)[C@H]2O)c(=O)n1` [azacitidine], for which the “Fold change vs veh, DTX4” value came to 0.59.
